Two compounds from PMC9785441, “A Broad Spectrum Antiparasitic Activity of Organotin (IV) Derivatives and Its Untargeted Proteomic Profiling Using Leishmania donovani” (Pathogens, 2022) can be followed below.

“Also recorded” adds a separate entry of the source.

The nature of series [1]: HEK293 cytotoxicity assay (resazurin). Format: cell-based. The conditions noted are these: HEK-293T cells, human embryonic kidney cells, max 4 µM, read-out: CC50 HEK923. Here is the method:
HEK-293T cells were cultured in DMEM (Gibco) supplemented with 10% heat inactivated FBS (Corning) and 1% penicillin-streptomycin (Gibco). Cells were maintained in vented T75 cell culture flasks (Thermo Scientific, Cat. 12-565-349) at 37 °C and 5% CO2, and were passaged every 72 h. […] Compounds were diluted with fresh DMEM (49 µL/well). HEK-293 cells were suspended at 4 × 10^5 cells/mL in DMEM and added to each well (50 µL/well) to give 2 × 10^4 cells/well. Assay plates were incubated at 37 °C and 5% CO2 for 48 h, followed by addition of 20 µL of 0.5 mM resazurin (Alfa Aesar, Cat. B21187) in PBS to each well. […] In each assay plate, cell viability was normalized relative to positive and negative controls. Assays were performed in biological and technical duplicates, and dose–response and CC50 data were generated with GraphPad Prism 5 using a sigmoidal four parameter logistic curve.
A general note: Alamar Blue is a resazurin reagent that responds to reducing activity.

A short description of series [2]: Cytotoxicity to B10R host cells (nuclei count in the amastigote assay). Particulars: mouse, B10R monocyte cells co-cultured with L. donovani parasites. It is filed as cell-based. The procedure: For the intracellular amastigote stage assay, L. donovani was incubated at a density of 1 × 10^6 parasites/mL for six days at 29 °C before infection to enrich the proportion of metacyclic promastigotes. B10R monocyte cell lines were cultured in RPMI supplemented with 10% FBS and 1%penicillin/streptomycin at 37 °C in 5% CO2. After 72 h, cells were counted with a hemocytometer and mixed with the six-day-old parasites. […] Plates were incubated at 37 °C and 5% CO2 for 72 h. Cultures were then fixed with 4% formaldehyde solution for 30 min and stained with 0.5 µg/mL DAPI (diamidino-2-phenylindole). Plates were then imaged using an ImageXpress Micro XLS automated high content imager (Molecular Devices, San Jose, CA, USA) using a 10× air objective. A custom image analysis module generated in ImageXpress was used to count the nuclei of host and parasite cells. EC50 values were obtained using the GraphPad Prism 9 Software with biological triplicates.

The subject of series [3] is L. donovani-infected B10R cells. As to the kind of experiment: Untargeted proteomics of L. donovani-infected B10R cells treated and untreated with MS26Et3. It is filed as cell-based, mouse / Leishmania donovani. Particulars: L. donovani-infected B10R cells exposed to compound vs not exposed. Here is the method:
B10R culture cells (infected or uninfected with Leishmanaia donovani) were collected and washed twice in cold PBS. The cell pellets (~10^6 cells/pellet) were snap-frozen and stored at −80 °C. To extract the proteins, pellets were thawed, and the cells were resuspended in 200 µL buffer containing 6 M urea, 7% SDS, 50 mM TEAB, protease inhibitor cocktail (Roche, cat. no. A32963), phosphatase inhibitor (Roche, cat. no. A32957), with pH adjusted to 8.1 with phosphoric acid. The cells were then lysed using a sonicating probe 200 µL. The samples were reduced in 500 mM DTT at 47 °C for 30 min and alkylated in 500 mM IAA in the absence of light, at room temperature for 45 min, followed by quenching in 500 mM DTT for 5 min. The samples were then acidified with 12% phosphoric acid and mixed in a 7:1 ratio with binding buffer containing 90% methanol, 50 mM TEAB, pH 7.1, adjusted with phosphoric acid and loaded on to S-Trap columns (Protifi). […] The concentration of desalted peptides was determined and 50 µg aliquots of each sample were dried in a speed vacuum concentrator. […]
Basic pH reverse-phase LC and data acquisition through LC–MS2/MS3 were performed as previously described. […] Fractions were then analyzed using tandem mass spectrometry (MS2/MS3) on an Orbitrap Fusion mass spectrometer (ThermoFisher, Waltham, MA, USA) with an in-line EASY-nLC 1000 instrument (ThermoFisher, Waltham, MA, USA). […]

As a reminder, the CC50 is the concentration giving 50% cytotoxicity.

`COc1ccc(NC(=O)CCC(=O)O)cc1` [MS26, 4-(4-methoxyphenylamino)-4 oxobutanoic acid]: in series [1], the CC50 at 48 h is greater than 4000 nM. In series [2], this compound showed a 50% cytotoxic concentration (CC50) at 72 h of 2380 nM.
Consider `C[CH2][Sn]([CH2]C)([CH2]C)[O]C(=O)CCC(=O)Nc1ccc(OC)cc1` [MS26Et3], for which the “Rab7 expression / abundance” value in series [3] is “reduced expression; also recorded: differentially expressed; also recorded: decreased in abundance”.
